Test results reported in patent US20250346602A1, “LACTAM SUBSTITUTED IMIDAZOPYRIDAZINE IL-17A MODULATORS AND USES THEREOF” (DICE ALPHA, INC., priority 2022, published 2025).
pIC50: −log10 of the molar value.

Target: T1, IL-17A/A (Homo sapiens, UniProt Q16552)
T1 construct: purchased Genscript Z03228
T1 sequence (Q16552 24-155): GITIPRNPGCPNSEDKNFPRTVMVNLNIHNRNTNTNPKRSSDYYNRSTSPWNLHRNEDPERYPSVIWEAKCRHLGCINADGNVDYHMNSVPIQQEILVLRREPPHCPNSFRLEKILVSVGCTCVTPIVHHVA
Assay: IL-17A/A HEK-Blue cell assay
Type: cell-based
Details: HEK-Blue IL-17A reporter cell line (HEK 293), IL-17A/A stimulation, 20 hours incubation, SEAP read at A630
Method in brief: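 HEK293 reporter cells expressing IL-17RA, IL-17RC and Act1 were given titrated compound (top final 10, 1 or 0.3 uM; 0.1% DMSO) right before IL-17A/A and incubated 20 hours. NFκB-driven SEAP in the media was read at A630 with Quanti-Blue, and IC50 came from a 4-parameter nonlinear fit.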

## CCn1nccc1C(=O)N[C@H](c1cn2nc(CC3C[C@H](C(F)(F)F)CNC3=O)ccc2n1)C1CCC(F)(F)CC1 (stereo partly drawn) [Compound 152, N-((1S)-(4,4-difluorocyclohexyl)(6-(((5S)-2-oxo-5-(trifluoromethyl)piperidin-3-yl)methyl)imidazo[1,2-b]pyridazin-2-yl)methyl)-1-ethyl-1H-pyrazole-5-carboxamide]
  pIC50: 6.00 to 7.00

## O=C(N[C@H](c1cn2nc(CC3C[C@@H](C(F)(F)F)CNC3=O)ccc2n1)C1CCC(F)(F)CC1)c1nonc1C(F)(F)F (stereo partly drawn) [Compound 113, N-((1S)-(4,4-difluorocyclohexyl)(6-(((5R)-2-oxo-5-(trifluoromethyl)piperidin-3-yl)methyl)imidazo[1,2-b]pyridazin-2-yl)methyl)-4-(trifluoromethyl)-1,2,5-oxadiazole-3-carboxamide]
  pIC50: 6.00 to 7.00

## CCn1nccc1C(=O)N[C@H](c1cn2ncc(CC3C[C@@H](C(F)(F)F)CNC3=O)cc2n1)[C@H]1CC[C@H](C)CC1 (single isomer, unassigned) [Compound 216]
  pIC50: 6.00 to 7.00

## Cc1nonc1C(=O)N[C@H](c1cn2nc(CC3C[C@@H](C(F)(F)F)CNC3=O)ccc2n1)C1CCC(F)(F)CC1 (stereo partly drawn) [Compound 100, N-((1S)-(4,4-difluorocyclohexyl)(6-(((5R)-2-oxo-5-(trifluoromethyl)piperidin-3-yl)methyl)imidazo[1,2-b]pyridazin-2-yl)methyl)-4-methyl-1,2,5-oxadiazole-3-carboxamide]
  pIC50: 6.00 to 7.00

## CCn1nccc1C(=O)N[C@H](c1cn2nc(CC3C[C@@H](C(F)(F)F)CNC3=O)c(C)cc2n1)C1CCC(F)(F)CC1 (single isomer, unassigned) [Compound 83]
  pIC50: 6.00 to 7.00

## O=C(N[C@H](c1cn2nc(CC3C[C@@H](C(F)(F)F)CNC3=O)ccc2n1)C1CCC(F)(F)CC1)c1cnnn1CCF (stereo partly drawn) [Compound 109, N-((1S)-(4,4-difluorocyclohexyl)(6-(((5R)-2-oxo-5-(trifluoromethyl)piperidin-3-yl)methyl)imidazo[1,2-b]pyridazin-2-yl)methyl)-1-(2-fluoroethyl)-1H-1,2,3-triazole-5-carboxamide]
  pIC50: 6.00 to 7.00

## CCn1nccc1C(=O)N[C@H](c1cn2nc(CC3CCCNC3=O)ccc2n1)C1CCC(F)(F)CC1 (single isomer, unassigned) [Compound 13, N-((1 S)-(4,4-difluorocyclohexyl)(6-((2-oxopiperidin-3-yl)methyl)imidazo[1,2-b]pyridazin-2-yl)methyl)-1-ethyl-1H-pyrazole-5-carboxamide]
  pIC50: 6.00 to 7.00

## Cn1nccc1C(=O)N[C@H](c1cn2nc(CC3C[C@@H](C(F)(F)F)CNC3=O)ccc2n1)[C@H]1CC[C@H](C)CC1 (stereo partly drawn) [Compound 162, 1-methyl-N-((1S)-((1R.4S)-4-methylcyclohexyl)(6-(((5R)-2-oxo-5-(trifluoromethyl)piperidin-3-yl)methyl)imidazo[1,2-b]pyridazin-2-yl)methyl)-1H-pyrazole-5-carboxamide]
  pIC50: 6.00 to 7.00

## CCn1nccc1C(=O)NC(c1cn2nc(CC3CC(F)(F)CNC3=O)ccc2n1)C1CCC(C)CC1 (single isomer, unassigned) [Compound 26]
  pIC50: 6.00 to 7.00

## CC[C@@H](c1ccc(F)cc1)[C@H](NC(=O)c1ccnn1CC)c1cn2nc(CC3C[C@@H](C(F)(F)F)CNC3=O)ccc2n1 (stereo partly drawn) [Compound 168, 1-ethyl-N-((1S,2S)-2-(4-fluorophenyl)-1-(6-(((3R.5R)-2-oxo-5-(trifluoromethyl)piperidin-3-yl)methyl)imidazo[1,2-b]pyridazin-2-yl)butyl)-1H-pyrazole-5-carboxamide]
  pIC50: > 7.00

## CCn1nccc1C(=O)N[C@H](c1cn2nc(CC3C[C@H](C(F)(F)F)CNC3=O)ccc2n1)[C@H]1CC[C@H](C)CC1 (stereo partly drawn) [Compound 154, 1-Ethyl-N-((1S)-((1R.4S)-4-methylcyclohexyl)(6-(((5S)-2-oxo-5-(trifluoromethyl)piperidin-3-yl)methyl)imidazo[1,2-b]pyridazin-2-yl)methyl)-1H-pyrazole-5-carboxamide]
  pIC50: > 7.00

## CCn1nccc1C(=O)N[C@H](c1cn2nc(CC3(C)C[C@@H](C(F)(F)F)CNC3=O)ccc2n1)[C@H]1CC[C@H](C)CC1 (single isomer, unassigned) [Compound 67]
  pIC50: 6.00 to 7.00

## C[C@H]1CC[C@H]([C@H](NC(=O)c2ccnn2CCO)c2cn3nc(CC4C[C@@H](C(F)(F)F)CNC4=O)ccc3n2)CC1 (stereo partly drawn) [Compound 167, 1-(2-hydroxyethyl)-N—((S)-((1R.4S)-4-methylcyclohexyl)(6-(((3R.5R)-2-oxo-5-(trifluoromethyl)piperidin-3-yl)methyl)imidazo[1,2-b]pyridazin-2-yl)methyl)-1H-pyrazole-5-carboxamide]
  pIC50: 6.00 to 7.00

## Cc1nonc1C(=O)N[C@H](c1cn2nc(C[C@H]3CCCNC3=O)ccc2n1)C(C1CC1)C1CC1 [Compound 36, N—((S)-2,2-dicyclopropyl-1-(6-(((R)-2-oxopiperidin-3-yl)methyl)imidazo[1,2-b]pyridazin-2-yl)ethyl)-4-methyl-1,2,5-oxadiazole-3-carboxamide]
  pIC50: < 6.00

## O=C(N[C@H](c1cn2nc(CC3C[C@@H](C(F)(F)F)CNC3=O)ccc2n1)C1CCC(F)(F)CC1)c1conc1C1CC(F)(F)C1 (stereo partly drawn) [Compound 124, 3-(3,3-difluorocyclobutyl)-N-((1S)-(4,4-difluorocyclohexyl)(6-(((5R)-2-oxo-5-(trifluoromethyl)piperidin-3-yl)methyl)imidazo[1,2-b]pyridazin-2-yl)methyl)isoxazole-4-carboxamide]
  pIC50: 6.00 to 7.00

## O=C(N[C@H](c1cn2nc(CC3C[C@@H](C(F)(F)F)CNC3=O)ccc2n1)C1CCC(F)(F)CC1)c1ccnn1C1CC1(F)F (single isomer, unassigned) [Compound 99]
  pIC50: 6.00 to 7.00

## CCn1nccc1C(=O)N[C@H](c1cn2nc(CC3C(=O)NCCC3C)ccc2n1)[C@H]1CC[C@H](C)CC1 (single isomer, unassigned) [Compound 53]
  pIC50: 6.00 to 7.00

## CCn1nccc1C(=O)N[C@H](c1cn2nc(CC3CC(F)(F)CNC3=O)c(NC)cc2n1)C1CCC(F)(F)CC1 (single isomer, unassigned) [Compound 74]
  pIC50: < 6.00

## CCn1nccc1C(=O)N[C@H](c1cn2nc(CC3CC(C4CC4)CNC3=O)ccc2n1)C1CCC(F)(F)CC1 (single isomer, unassigned) [Compound 71]
  pIC50: 6.00 to 7.00

## CCn1nccc1C(=O)N[C@H](c1cn2ncc(CC3C[C@@H](C(F)(F)F)CNC3=O)cc2n1)C(C1CC1)C1CC1 (single isomer, unassigned) [Compound 208]
  pIC50: 6.00 to 7.00

## CCn1nccc1C(=O)N[C@H](c1cn2nc(CC3CCNC3=O)ccc2n1)C1CCC(F)(F)CC1 (single isomer, unassigned) [Compound 1]
  pIC50: < 6.00

## O=C(N[C@H](c1cn2nc(CC3C[C@H](C(F)(F)F)CNC3=O)ccc2n1)[C@@H]1CCCC(F)(F)C1)c1conc1C1CC1 (stereo partly drawn) [Compound 158, 3-cyclopropyl-N-((1S)—((R)-3,3-difluorocyclohexyl)(6-(((5S)-2-oxo-5-(trifluoromethyl)piperidin-3-yl)methyl)imidazo[1,2-b]pyridazin-2-yl)methyl)isoxazole-4-carboxamide]
  pIC50: 6.00 to 7.00

## CCn1nccc1C(=O)N[C@H](c1cn2nc(CC3C[C@@H](C(F)(F)F)NC3=O)ccc2n1)C1CCCCCC1 (single isomer, unassigned) [Compound 5]
  pIC50: > 7.00

## CCn1nccc1C(=O)N[C@H](c1cn2nc(CC3C[C@@H](C(F)(F)F)CNC3=O)c(N(C)C3CCOCC3)cc2n1)C1CCC(F)(F)CC1 (single isomer, unassigned) [Compound 93]
  pIC50: 6.00 to 7.00

## CCn1nccc1C(=O)N[C@H](c1cn2nc(C(C)C3C[C@@H](C(F)(F)F)CNC3=O)ccc2n1)C(C1CC1)C1CC1 (single isomer, unassigned) [Compound 56]
  pIC50: < 6.00

## CCc1nonc1C(=O)N[C@H](c1cn2nc(C[C@H]3C[C@@H](C(F)(F)F)NC3=O)ccc2n1)C1CCC(F)(F)CC1 [Compound 17, N—((S)-(4,4-difluorocyclohexyl)(6-(((3R,5S)-2-oxo-5-(trifluoromethyl)pyrrolidin-3-yl)methyl)imidazo[1,2-b]pyridazin-2-yl)methyl)-4-ethyl-1,2,5-oxadiazole-3-carboxamide]
  pIC50: 6.00 to 7.00

## CCn1nccc1C(=O)N[C@H](c1cn2nc(C[C@H]3C[C@@H](C(F)(F)F)CNC3=O)c(C#N)cc2n1)C1CCC(F)(F)CC1 [Compound 81]
  pIC50: 6.00 to 7.00

## CCn1nccc1C(=O)N[C@H](c1cn2nc(CC3CC(C(C)(F)F)NC3=O)ccc2n1)C1CCC(F)(F)CC1 (single isomer, unassigned) [Compound 68]
  pIC50: < 6.00

## CCn1nccc1C(=O)N[C@H](c1cn2nc(CC3CC(F)(F)CNC3=O)c(N(C)C)cc2n1)C1CCC(F)(F)CC1 (single isomer, unassigned) [Compound 87]
  pIC50: > 7.00

## CC(C)n1nccc1C(=O)N[C@H](c1cn2nc(CC3C[C@@H](C(F)(F)F)CNC3=O)ccc2n1)[C@@H]1CCCC(F)(F)C1 (stereo partly drawn) [Compound 149, N-((1S)—((R)-3,3-difluorocyclohexyl)(6-(((5R)-2-oxo-5-(trifluoromethyl)piperidin-3-yl)methyl)imidazo[1,2-b]pyridazin-2-yl)methyl)-1-isopropyl-1H-pyrazole-5-carboxamide]
  pIC50: > 7.00

## CCn1nccc1C(=O)N[C@H](c1cn2nc(CC3CCCNC3=O)ccc2n1)C1CCCCCC1 (single isomer, unassigned) [Compound 12]
  pIC50: > 7.00

## CCn1nccc1C(=O)N[C@H](c1cn2nc(CC3C[C@@H](C(F)(F)F)CNC3=O)c(C(C)C)cc2n1)C1CCC(F)(F)CC1 (stereo partly drawn) [Compound 180, N-((1S)-(4,4-difluorocyclohexyl)(7-isopropyl-6-(((5R)-2-oxo-5-(trifluoromethyl)piperidin-3-yl)methyl)imidazo[1,2-b]pyridazin-2-yl)methyl)-1-ethyl-1H-pyrazole-5-carboxamide]
  pIC50: > 7.00
